# Laboratory results as given in patent US4810636A, “Chromogenic acridinone enzyme substrates” (Miles Inc., priority 1987, dated 1989).
# Where “and” joins values, the source holds several entries; their conditions need not be identical. Equal entries are not always repeated.
# What was measured:
# [1] = Visible absorbance (λmax, extinction coefficient) of substrate and chromogen; format: physicochemical; settings: for absorbance (λmax): uncleaved substrate or protonated chromogen
# Source text: (§1) According to a preferred embodiment of the present invention, chromogenic enzyme substrate compounds of the general formula (8), where Y is a radical of an enzyme-specific sugar moiety Y--OH, preferably β-D-galactose or β-D-glucose, and R and R' are methyl, can be prepared by reacting the dimethyl chromogen (20) with a 1-halogeno-derivative of the enzyme-specific moiety, preferably a 1-bromo-derivative thereof, substituted at the hydroxy-positions thereof with protecting groups, preferably acetate protecting groups, to result in per-O-substituted derivatives which can be hydrolyzed to remove such protecting groups to obtain the desired chromogenic enzyme substrate compound. For example, the β-D-galactoside of (20), the chromogenic enzyme substrate (8) where Y is the radical of β-D-galactose and R and R' are methyl, can be prepared for use in the determination of β-D-galactosidase. In particular, the dimethyl acridinone chromogen (20), where R and R' are methyl in the general formula (2), is reacted with acetobromogalactose and silver oxide in ethyl acetate/quinoline to prepare the 7-(tetra-O-acetyl-β-D-galactopyranosyloxy)-9,9-dimethyl-9H-acridin-2-one (31) of the formula: [drawing 13] The acetate protecting groups of (31) are then hydrolyzed with sodium methoxide in methanol to result in the desired 7-β-D-galactopyranosyloxy-9,9-dimethyl-9H-acridin-2-one (32) of the present invention of the formula: [drawing 14] The resulting galactoside (32) has an absorbance (λmax) of 438 nm (yellow), an extinction coefficient of 27,400, and is soluble in a phosphate buffered solution (pH 7.4).
# (§2) (C), 2462 (1970), where R and R' in the general formula (2) are methyl.
# [2] = Solubility and stability in aqueous buffered / basic solution; format: physicochemical
# Source text: as §1, with “The acetate protecting groups of (31) are then hydrolyzed with sodium methoxide in methanol to result in the desired 7-β-D-galactopyranosyloxy-9,9-dimethyl-9H-acridin-2-one (32) of the present invention of the formula: [drawing 14]” left out, “7.4). […]” for “7.4).”
# [3] = Phenolic pKa of the chromogen; format: physicochemical
# Source text: as §2
# β-D-galactosidase [4] = target: T1, β-D-galactosidase (Escherichia coli, UniProt P00722); assay: Hydrolysis of the galactoside substrate by β-D-galactosidase (Kcat, Km); format: biochemical; settings: 50 mM phosphate buffered solution (pH 7.4) containing 5 mM MgCl2
# T1 sequence (P00722 2-1024): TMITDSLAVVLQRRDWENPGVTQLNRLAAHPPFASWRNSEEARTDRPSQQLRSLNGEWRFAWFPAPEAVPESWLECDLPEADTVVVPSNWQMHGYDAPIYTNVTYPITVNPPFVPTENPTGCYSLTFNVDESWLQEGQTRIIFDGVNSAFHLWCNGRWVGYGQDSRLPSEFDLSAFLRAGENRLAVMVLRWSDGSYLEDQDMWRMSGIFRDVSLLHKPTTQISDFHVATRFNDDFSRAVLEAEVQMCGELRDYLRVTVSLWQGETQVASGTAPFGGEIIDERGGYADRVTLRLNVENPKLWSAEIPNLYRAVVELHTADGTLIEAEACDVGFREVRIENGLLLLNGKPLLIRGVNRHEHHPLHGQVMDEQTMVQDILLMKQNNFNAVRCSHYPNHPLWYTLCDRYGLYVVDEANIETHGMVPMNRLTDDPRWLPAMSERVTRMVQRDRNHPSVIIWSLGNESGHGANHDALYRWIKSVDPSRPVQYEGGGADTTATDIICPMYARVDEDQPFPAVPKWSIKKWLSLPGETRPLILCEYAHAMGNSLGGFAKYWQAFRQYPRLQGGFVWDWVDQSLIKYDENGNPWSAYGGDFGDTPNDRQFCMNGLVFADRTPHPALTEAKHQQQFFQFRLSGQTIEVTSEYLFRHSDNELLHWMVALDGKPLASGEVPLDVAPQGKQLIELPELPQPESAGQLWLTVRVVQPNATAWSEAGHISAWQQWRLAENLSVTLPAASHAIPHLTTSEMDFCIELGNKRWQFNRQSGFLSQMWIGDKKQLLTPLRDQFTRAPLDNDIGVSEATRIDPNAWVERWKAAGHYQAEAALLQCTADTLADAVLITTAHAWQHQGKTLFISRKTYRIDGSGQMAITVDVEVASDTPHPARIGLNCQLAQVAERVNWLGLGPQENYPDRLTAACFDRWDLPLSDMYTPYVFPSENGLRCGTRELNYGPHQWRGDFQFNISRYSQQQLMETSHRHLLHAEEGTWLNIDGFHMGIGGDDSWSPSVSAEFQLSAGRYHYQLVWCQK
# Source text: as §1, with “The acetate protecting groups of (31) are then hydrolyzed with sodium methoxide in methanol to result in the desired 7-β-D-galactopyranosyloxy-9,9-dimethyl-9H-acridin-2-one (32) of the present invention of the formula: [drawing 14]” left out
# β-D-galactosidase [5] = target: T1, β-D-galactosidase; assay: Analytical test device for β-D-galactosidase, reflectance dose response; format: biochemical; settings: 0.02-0.20 ng/ml β-D-galactosidase, reflectance at 630 nm after 50-70 seconds
# Protocol: A 2 inch wide×2 inch long sheet of Whatman 54 filter paper (Whatman, Inc., Clifton, N.J., U.S.A.) was immersed in an aqueous solution comprising 0.3M bicine buffer (pH 7.9) and 4.0 mM MgCl2 and air-dried overnight at room temperature. The filter paper was then immersed in a methanol solution containing 15 mM of the substrate product (32) from Example 3 and air-dried for one hour at room temperature to obtain a filter paper which was yellow in color.
# A 0.5 cm wide×1.0 cm long segment of the above-described impregnated yellow filter paper was mounted onto and along the edge of one surface of a 0.5 cm×8.125 cm polystyrene support (Tricite®, Dow Chemical Co., Midland, Mich., U.S.A.) previously laminated with a 2 mm strip of Double Stick® double-faced adhesive tape (3M Company, St. Paul, Minn., U.S.A.) for use as an analytical test device for the detection of β-D-galactosidase from a liquid test sample.
# Ten analytical test devices were prepared according to Example 4 and employed to determine the dose response of the substrate product compound (32) of the present invention to β-D-galactosidase.
# […] aqueous test sample solutions containing β-D-galactosidase concentrations of 0.02 ng/ml, 0.04 ng/ml, 0.06 ng/ml, 0.08 ng/ml, 0.12 ng/ml, 0.14 ng/ml, 0.16 ng/ml, 0.18 ng/ml and 0.20 ng/ml were prepared and an analytical test device dipped into each.
# alkaline phosphatase = assay: Hydrolysis of the phosphate substrate by alkaline phosphatase (KM, Kcat); format: biochemical; settings: 1.0M diethanolamine buffer (pH=9.8) containing 5.0 mM MgCl2
# α-amylase [6] = assay: Analytical test device for the detection of α-amylase, reflectance; format: biochemical; settings: for Reactivity × 10^-2: linear regression of L(R) between 180 and 200 seconds, 630 nm
# Protocol: A sheet of Whatman 54 filter paper (Whatman, Inc., Clifton, N.J., U.S.A.) was immersed into a solution comprising the liquid α-amylase detection reagent prepared according to Example 10, 0.1% Triton X-100 (Sigma Chemical Co., St. Louis, Mo., U.S.A.) and 0.5% carboxycellulose, and dried.
# Analytical test devices were prepared by mounting 0.5 cm wide×1.0 cm long segment of the aforementioned impregnated filter paper onto and along the edge of one surface of 0.5 cm×8.125 cm polystyrene supports (Tricite®, Dow Chemical Co., Midland, Mich., U.S.A.) previously laminated with a 2 mm strip of Double Stick® double-faced adhesive tape (3M Company, St. Paul, Minn., U.S.A.).
# Three 30 μL aliquots of undiluted serum containing 39 IU/L, 78 IU/L, 117 IU/L, 157 IU/L, 235 IU/L, and 313 IU/L, respectively, of α-amylase were applied, independently, to a test device and the rate of color change produced by the liberated chromogen on each device was measured at 630 nm on a Seralyzer® reflectance photometer (Miles Inc., Elkhart, Ind., U.S.A.) from between 0 seconds and 240 seconds after the serum sample was added to each test device.
# α-amylase [7] = assay: Liquid analytical test system for the detection of α-amylase; format: biochemical; settings: for Absorbance (634 nm): 37° C.; for Absorbance/Minute: average of three consecutive readings between 3 and 6 minutes
# Protocol: A liquid α-amylase detection reagent was prepared by combining 1.8 mM DMA-G7 (43) prepared according to Example 9, 38 units of α-glucosidase and 20 units of β-glucosidase in 1.0 mL of buffered solution comprising 50 mM PIPES, 50 mM NaCl, and 5.0 mM calcium chloride (pH 7.0). Amylase control serum (0.025 mL) containing 37 IU/L, 175 IU/L, and 313 IU/L, respectively, of α-amylase were added to the detection reagent, independently, and incubated at 37° C. The enzymatic action of α-amylase on the substrate compound in each of the mixtures liberated shorter chain chromogenic maltooligosaccharide compounds thereof (e.g., DMA-G2 to DMA-G4) which, in turn, was enzymatically acted upon by the α-glucosidase and β-glucosidaseto liberate the optically active form of the dimethyl acridinone chromogen (20). The rate of color change produced by the liberated chromogen in each of the mixtures was measured at 634 nm on a Cary 219 spectrophotometer (Varian Associates, Inc., Sonnyvale, Calif., U.S.A.) from between 1 and 9 minutes after each of the serum samples were added to the detection reagent (Table 2).
smiles,measurement,setting,value
"CC1(C)C2=CC(=O)C=CC2=Nc2ccc(O)cc21 [Compound 20, 7-hydroxy-9,9-dimethyl-9H-acridin-2-one, reference compound]",shift in the absorbance maximum on deprotonation,[1],176 nm
same,absorbance of the deprotonated anion,[1]; deprotonated chromogen,635 nm
same,extinction coefficient of the anion,"[1]; pH=10, in M-1 cm-1 (unit assumed)","53,100"
same,absorbance (λmax),[1],459 nm
same,solubility and stability,"[2]; aqueous, basic solutions",soluble and stable
same,phenolic pKa,[3],7.1
"CC1(C)C2=CC(=O)C=CC2=Nc2ccc(O[C@@H]3O[C@H](CO)[C@H](O)[C@H](O)[C@H]3O)cc21 [Compound 32, 7-β-D-galactopyranosyloxy-9,9-dimethyl-9H-acridin-2-one]",change in absorbance between substrate and liberated chromogen anion,[1],196 nm
same,absorbance of the liberated chromogen anion,"[1]; after hydrolysis by β-D-galactosidase, phosphate buffered solution",634 nm
same,absorbance (λmax),[1],438 nm
same,extinction coefficient,"[1]; uncleaved substrate, at 438 nm, in M-1 cm-1 (unit assumed)","27,400"
same,rate at which the enzyme cleaves the substrate (Kcat),β-D-galactosidase [4],1.32×10^4 mol. min.^-1 /mol. active site
same,Km,β-D-galactosidase [4]; read-out: binding constant (Km),170 µM
same,dose response of reflectance to β-D-galactosidase,β-D-galactosidase [5],linear dose response
same,solubility,[2]; phosphate buffered solution (pH 7.4),soluble
"CC1(C)C2=CC(=O)C=CC2=Nc2ccc(OP(=O)(O)O)cc21 [Compound 37, disodium-9,9-dimethyl-9H-acridin-2-one-7-phosphate]",Kcat,alkaline phosphatase,1.94×10^5 mol/min/mol of enzyme
same,Km,alkaline phosphatase,480 µM
"CC1(C)C2=CC(=O)C=CC2=Nc2ccc(O[C@@H]3O[C@H](CO)[C@@H](O[C@H]4O[C@H](CO)[C@@H](O[C@H]5O[C@H](CO)[C@@H](O[C@H]6O[C@H](CO)[C@@H](O[C@H]7O[C@H](CO)[C@@H](O[C@H]8O[C@H](CO)[C@@H](O[C@H]9O[C@H](CO)[C@@H](O)[C@H](O)[C@H]9O)[C@H](O)[C@H]8O)[C@H](O)[C@H]7O)[C@H](O)[C@H]6O)[C@H](O)[C@H]5O)[C@H](O)[C@H]4O)[C@H](O)[C@H]3O)cc21 [DMA-G7, 7-β-maltoheptaosyloxy-9,9-dimethyl-acridin-2-one]",dose response to α-amylase,α-amylase [6]; 39-313 IU/L α-amylase in undiluted serum,linear dose response
same,Reactivity × 10^-2,α-amylase [6]; 39 IU/L α-amylase serum,0.384 × 10^-2 and 0.373 × 10^-2 and 0.359 × 10^-2
same,Reactivity × 10^-2,α-amylase [6]; 78 IU/L α-amylase serum,0.957 × 10^-2 and 0.941 × 10^-2 and 0.954 × 10^-2
same,Reactivity × 10^-2,α-amylase [6]; 117 IU/L α-amylase serum,1.450 × 10^-2 and 1.510 × 10^-2 and 1.430 × 10^-2
same,Reactivity × 10^-2,α-amylase [6]; 157 IU/L α-amylase serum,1.781 × 10^-2 and 1.999 × 10^-2 and 1.886 × 10^-2
same,Reactivity × 10^-2,α-amylase [6]; 235 IU/L α-amylase serum,2.560 × 10^-2 and 2.596 × 10^-2 and 2.610 × 10^-2
same,Reactivity × 10^-2,α-amylase [6]; 313 IU/L α-amylase serum,2.961 × 10^-2 and 2.989 × 10^-2 and 2.916 × 10^-2
same,dose response to the α-amylase concentration,"α-amylase [7]; 37-313 IU/L, readings between 3 and 6 minutes",linear dose response
same,Absorbance (634 nm),"α-amylase [7]; 37 IU/L α-amylase, 1 minute",0.123
same,Absorbance (634 nm),"α-amylase [7]; 37 IU/L α-amylase, 2 minutes",0.129
same,Absorbance (634 nm),"α-amylase [7]; 37 IU/L α-amylase, 3 minutes",0.138
same,Absorbance (634 nm),"α-amylase [7]; 37 IU/L α-amylase, 4 minutes",0.148
same,Absorbance (634 nm),"α-amylase [7]; 37 IU/L α-amylase, 5 minutes",0.160
same,Absorbance (634 nm),"α-amylase [7]; 37 IU/L α-amylase, 6 minutes",0.172
same,Absorbance (634 nm),"α-amylase [7]; 37 IU/L α-amylase, 7 minutes",0.187
same,Absorbance (634 nm),"α-amylase [7]; 37 IU/L α-amylase, 8 minutes",0.202
same,Absorbance (634 nm),"α-amylase [7]; 37 IU/L α-amylase, 9 minutes",0.218
same,Absorbance/Minute,α-amylase [7]; 37 IU/L α-amylase,0.011
same,Absorbance (634 nm),"α-amylase [7]; 175 IU/L α-amylase, 1 minute",0.150
same,Absorbance (634 nm),"α-amylase [7]; 175 IU/L α-amylase, 2 minutes",0.178
same,Absorbance (634 nm),"α-amylase [7]; 175 IU/L α-amylase, 3 minutes",0.223
same,Absorbance (634 nm),"α-amylase [7]; 175 IU/L α-amylase, 4 minutes",0.279
same,Absorbance (634 nm),"α-amylase [7]; 175 IU/L α-amylase, 5 minutes",0.341
same,Absorbance (634 nm),"α-amylase [7]; 175 IU/L α-amylase, 6 minutes",0.409
same,Absorbance (634 nm),"α-amylase [7]; 175 IU/L α-amylase, 7 minutes",0.481
same,Absorbance (634 nm),"α-amylase [7]; 175 IU/L α-amylase, 8 minutes",0.555
same,Absorbance (634 nm),"α-amylase [7]; 175 IU/L α-amylase, 9 minutes",0.631
same,Absorbance/Minute,α-amylase [7]; 175 IU/L α-amylase,0.062
same,Absorbance (634 nm),"α-amylase [7]; 313 IU/L α-amylase, 1 minute",0.171
same,Absorbance (634 nm),"α-amylase [7]; 313 IU/L α-amylase, 2 minutes",0.212
same,Absorbance (634 nm),"α-amylase [7]; 313 IU/L α-amylase, 3 minutes",0.282
same,Absorbance (634 nm),"α-amylase [7]; 313 IU/L α-amylase, 4 minutes",0.372
same,Absorbance (634 nm),"α-amylase [7]; 313 IU/L α-amylase, 5 minutes",0.474
same,Absorbance (634 nm),"α-amylase [7]; 313 IU/L α-amylase, 6 minutes",0.585
same,Absorbance (634 nm),"α-amylase [7]; 313 IU/L α-amylase, 7 minutes",0.702
same,Absorbance (634 nm),"α-amylase [7]; 313 IU/L α-amylase, 8 minutes",0.823
same,Absorbance (634 nm),"α-amylase [7]; 313 IU/L α-amylase, 9 minutes",0.948
same,Absorbance/Minute,α-amylase [7]; 313 IU/L α-amylase,0.109
